pIC50: −log10 of the molar value.

For orientation: pIC50 means the IC50 on a negative log10 scale, so that one unit is a factor of ten.

In this test the target is T1, human Npt2a (Homo sapiens, UniProt Q06495).
T1 construct: expressed in transfected cells
T1 sequence (Q06495 1-639): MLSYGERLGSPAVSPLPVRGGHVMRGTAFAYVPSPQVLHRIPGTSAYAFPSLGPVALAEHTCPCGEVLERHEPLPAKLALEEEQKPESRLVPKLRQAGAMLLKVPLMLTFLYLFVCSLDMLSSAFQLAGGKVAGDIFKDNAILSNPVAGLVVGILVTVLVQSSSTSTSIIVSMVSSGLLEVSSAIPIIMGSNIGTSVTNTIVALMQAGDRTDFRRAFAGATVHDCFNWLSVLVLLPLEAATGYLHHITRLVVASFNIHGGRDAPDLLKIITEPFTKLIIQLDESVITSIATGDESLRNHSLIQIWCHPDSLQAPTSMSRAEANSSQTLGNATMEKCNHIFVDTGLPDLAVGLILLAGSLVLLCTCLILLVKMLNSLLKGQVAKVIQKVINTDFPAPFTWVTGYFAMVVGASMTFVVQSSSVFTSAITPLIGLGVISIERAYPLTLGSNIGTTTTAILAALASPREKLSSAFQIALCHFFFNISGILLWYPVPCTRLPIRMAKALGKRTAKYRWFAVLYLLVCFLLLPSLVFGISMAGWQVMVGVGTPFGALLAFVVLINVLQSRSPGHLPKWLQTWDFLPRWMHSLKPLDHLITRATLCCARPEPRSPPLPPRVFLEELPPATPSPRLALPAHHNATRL
In words: Npt2a activity cell based assay, membrane potential dye, CHO T-REx hNpt2a cells. The note with it: doxycycline-induced, depolarization by sodium phosphate influx, average or median values if tested more than once. In a few lines: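 Doxycycline-induced (0.5 μg/mL, 24 h) CHO T-REx cells were loaded with membrane potential dye in sodium-free NHE buffer (pH 7.4) and exposed to compound (50 μM–1 nM, 5 min, room temperature).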
In the case of `CCOC(C)c1c(C)nn(-c2cc(Nc3c(C)c(-c4ccc(C#N)cc4)nn3CC3CC3)ncn2)c1C` (racemic) [Example 342, (±)-4-{1-(cyclopropylmethyl)-5-[(6-{4-[1-ethoxyethyl]-3,5-dimethyl-1H-pyrazol-1-yl}pyrimidin-4-yl)amino]-4-methyl-1H-pyrazol-3-yl}benzonitrile], the pIC50 was 8.70.

`Cc1nn(-c2cc(Nc3c(C)c(-c4ccc(C(F)(F)F)cc4)nn3CC3CC3)ncn2)c(C)c1Cl` [Example 311, 6-(4-chloro-3,5-dimethyl-1H-pyrazol-1-yl)-N-{1-(cyclopropylmethyl)-4-methyl-3-[4-(trifluoromethyl)phenyl]-1H-pyrazol-5-yl}pyrimidin-4-amine] gave a pIC50 of 6.47.

On to `CCOC(=O)c1c(C)nn(-c2cc(Nc3c(C)nn(-c4ccc(C#N)cc4)c3C)ncn2)c1C` [Example 219, ethyl 1-(6-{[1-(4-cyanophenyl)-3,5-dimethyl-1H-pyrazol-4-yl]amino}pyrimidin-4-yl)-3,5-dimethyl-1H-pyrazole-4-carboxylate], for which the pIC50 was greater than 8.80.

On to `Cc1ccn(-c2cc(Nc3c(C)c(-c4ccc(C#N)cc4)nn3CC3CC3)ncn2)n1` [Example 243, 4-[1-(cyclopropylmethyl)-4-methyl-5-{[6-(3-methyl-1H-pyrazol-1-yl)pyrimidin-4-yl]amino}-1H-pyrazol-3-yl]benzonitrile], for which the pIC50 is 7.55.

In turn, `CCOC(=O)Cc1c(C)nn(-c2cc(Nc3c(C)nn(-c4ccc(C#N)cc4)c3C)ncn2)c1C` [Example 257, ethyl [1-(6-{[1-(4-cyanophenyl)-3,5-dimethyl-1H-pyrazol-4-yl]amino}pyrimidin-4-yl)-3,5-dimethyl-1H-pyrazol-4-yl]acetate] had a pIC50 of 7.13.

The compound `CCc1c(-c2ccc(F)cc2)nn(CC2CC2)c1Nc1cc(-n2nc(C)c(Cl)c2C(F)F)ncn1` [Example 148, 6-[4-chloro-5-(difluoromethyl)-3-methyl-1H-pyrazol-1-yl]-N-[1-(cyclopropylmethyl)-4-ethyl-3-(4-fluorophenyl)-1H-pyrazol-5-yl]pyrimidin-4-amine] had a pIC50 of 7.10.

With `Cc1nn(-c2cc(Nc3nn(CC4CC4)c(-c4ccc(F)cc4)c3Cl)ncn2)c(C(F)F)c1Cl` [Example 184, N-[4-chloro-1-(cyclopropylmethyl)-5-(4-fluorophenyl)-1H-pyrazol-3-yl]-6-[4-chloro-5-(difluoromethyl)-3-methyl-1H-pyrazol-1-yl]pyrimidin-4-amine], the pIC50 is 5.92.

As for `Cc1nn(-c2cc(Nc3c(Cl)c(-c4ccc(F)cc4)nn3CC3CC3)ncn2)c(C(F)F)c1Cl` [Example 186, N-[4-chloro-1-(cyclopropylmethyl)-3-(4-fluorophenyl)-1H-pyrazol-5-yl]-6-[4-chloro-5-(difluoromethyl)-3-methyl-1H-pyrazol-1-yl]pyrimidin-4-amine], the pIC50 was 7.22.

The compound `Cc1nn(-c2cc(Nc3c(C)nn(-c4ccc(F)cc4)c3C)ncn2)c(C)c1Cl` [Example 63, 6-(4-chloro-3,5-dimethyl-1H-pyrazol-1-yl)-N-[1-(4-fluorophenyl)-3,5-dimethyl-1H-pyrazol-4-yl]pyrimidin-4-amine] gave a pIC50 of 8.12.

`Cc1nn(-c2cc(Nc3c(C)c(-c4ccc(F)cc4)nn3C)ncn2)c(C)c1Cl` [Example 68, 6-(4-chloro-3,5-dimethyl-1H-pyrazol-1-yl)-N-[3-(4-fluorophenyl)-1,4-dimethyl-1H-pyrazol-5-yl]pyrimidin-4-amine] gave a pIC50 of 7.50.

`COCc1c(C)nn(-c2cc(Nc3c(C)c(-c4ccc(F)cc4)nn3CC3CC3)ncn2)c1C` [Example 503, N-[1-(cyclopropylmethyl)-3-(4-fluorophenyl)-4-methyl-1H-pyrazol-5-yl]-6-[4-(methoxymethyl)-3,5-dimethyl-1H-pyrazol-1-yl]pyrimidin-4-amine] had a pIC50 of 8.40.

As for `Cc1cc(C(F)F)n(-c2cc(Nc3c(C)c(-c4ccc(C#N)cc4)nn3CC(F)F)ncn2)n1` [Example 234, 4-[1-(2,2-difluoroethyl)-5-({6-[5-(difluoromethyl)-3-methyl-1H-pyrazol-1-yl]pyrimidin-4-yl}amino)-4-methyl-1H-pyrazol-3-yl]benzonitrile], the pIC50 was 7.55.

In the case of `CCc1c(Nc2cc(-n3nc(C)cc3C)ncn2)nn(CC(F)F)c1-c1ccc(F)cc1` [Example 173, N-[1-(2,2-difluoroethyl)-4-ethyl-5-(4-fluorophenyl)-1H-pyrazol-3-yl]-6-(3,5-dimethyl-1H-pyrazol-1-yl)pyrimidin-4-amine], the negative-log IC50 (pIC50) was 7.80.

The compound `CSc1cc(-c2nn(CC3CC3)c(Nc3cc(-n4nc(C)cc4C)ncn3)c2C)ccc1F` [Example 430, N-{1-(cyclopropylmethyl)-3-[4-fluoro-3-(methylsulfanyl)phenyl]-4-methyl-1H-pyrazol-5-yl}-6-(3,5-dimethyl-1H-pyrazol-1-yl)pyrimidin-4-amine] gave a pIC50 of 7.35.

Consider `CCOC(=O)c1c(C)nn(-c2cc(Nc3c(CC)c(-c4ccc(F)cc4)nn3CC(F)F)ncn2)c1C` [Example 180, ethyl 1-(6-{[1-(2,2-difluoroethyl)-4-ethyl-3-(4-fluorophenyl)-1H-pyrazol-5-yl]amino}pyrimidin-4-yl)-3,5-dimethyl-1H-pyrazole-4-carboxylate], for which the pIC50 was 7.33.

Regarding `Cc1nn(-c2cc(Nc3c(C)c(-c4ccc(Cl)cc4)nn3CC3CC3)ncn2)c(C)c1C(C)(C)O` [Example 347, 2-[1-(6-{[3-(4-chlorophenyl)-1-(cyclopropylmethyl)-4-methyl-1H-pyrazol-5-yl]amino}pyrimidin-4-yl)-3,5-dimethyl-1H-pyrazol-4-yl]propan-2-ol], the pIC50 is 7.64.

On to `Cc1cc(C)n(-c2cc(Nc3[nH]nc(-c4ccccc4)c3C)ncn2)n1` [Example 10, 6-(3,5-dimethyl-1H-pyrazol-1-yl)-N-(4-methyl-3-phenyl-1H-pyrazol-5-yl)pyrimidin-4-amine], for which the pIC50 was 7.47.

In the case of `COc1c(C)nn(-c2cc(Nc3c(C)c(-c4ccc(C(F)(F)F)nc4)nn3CC3CC3)ncn2)c1C` [Example 535, N-{1-(cyclopropylmethyl)-4-methyl-3-[6-(trifluoromethyl)pyridin-3-yl]-1H-pyrazol-5-yl}-6-(4-methoxy-3,5-dimethyl-1H-pyrazol-1-yl)pyrimidin-4-amine], the pIC50 is 7.59.

`Cc1cc(C(F)F)n(-c2cc(Nc3c(C)c(-c4ccc(C(F)F)cc4)nn3C)ncn2)n1` [Example 408, 6-[5-(difluoromethyl)-3-methyl-1H-pyrazol-1-yl]-N-{3-[4-(difluoromethyl)phenyl]-1,4-dimethyl-1H-pyrazol-5-yl}pyrimidin-4-amine] had a pIC50 of 8.22.

In the case of `CCc1c(Nc2cc(-n3nc(C)cc3C)ncn2)nn(C)c1-c1ccc(C#N)cc1` [Example 210, 4-(3-{[6-(3,5-dimethyl-1H-pyrazol-1-yl)pyrimidin-4-yl]amino}-4-ethyl-1-methyl-1H-pyrazol-5-yl)benzonitrile], the pIC50 is 7.89.

In turn, `CNc1ccc(-c2nn(CC3CC3)c(Nc3cc(-n4nc(C)cc4C)ncn3)c2C)cc1` [Example 480, N-{1-(cyclopropylmethyl)-4-methyl-3-[4-(methylamino)phenyl]-1H-pyrazol-5-yl}-6-(3,5-dimethyl-1H-pyrazol-1-yl)pyrimidin-4-amine] showed a pIC50 of 6.43.

`COCCn1nc(-c2ccc(F)cc2)c(C)c1Nc1cc(-n2nc(C)c(OC)c2C)ncn1` [Example 526, N-[3-(4-fluorophenyl)-1-(2-methoxyethyl)-4-methyl-1H-pyrazol-5-yl]-6-(4-methoxy-3,5-dimethyl-1H-pyrazol-1-yl)pyrimidin-4-amine]: the pIC50 is 7.77.

In turn, `COc1ccc(-c2nn(CC3CC3)c(Nc3cc(-n4nc(C)c(C#N)c4C)ncn3)c2C)cc1` [Example 483, 1-(6-{[1-(cyclopropylmethyl)-3-(4-methoxyphenyl)-4-methyl-1H-pyrazol-5-yl]amino}pyrimidin-4-yl)-3,5-dimethyl-1H-pyrazole-4-carbonitrile] showed a pIC50 of 5.90.

`CCc1c(Nc2cc(-n3nc(C)c4ccccc43)ncn2)n[nH]c1-c1ccc(F)cc1` [Example 19, N-[4-ethyl-5-(4-fluorophenyl)-1H-pyrazol-3-yl]-6-(3-methyl-1H-indazol-1-yl)pyrimidin-4-amine]: the pIC50 was 6.96.

Compound `COC(C)c1c(C)nn(-c2cc(Nc3c(C)c(-c4ccc(F)cc4)nn3CC3CC3)ncn2)c1C` (single isomer, unassigned) [Example 328, N-[1-(cyclopropylmethyl)-3-(4-fluorophenyl)-4-methyl-1H-pyrazol-5-yl]-6-{4-[1-methoxyethyl]-3,5-dimethyl-1H-pyrazol-1-yl}pyrimidin-4-amine] showed a pIC50 of 8.40.

`CCc1c(Nc2cc(-n3nc(C)c(C(=O)N4CCC4)c3C)ncn2)nn(C)c1-c1ccc(F)cc1` [Example 123, azetidin-1-yl[1-(6-{[4-ethyl-5-(4-fluorophenyl)-1-methyl-1H-pyrazol-3-yl]amino}pyrimidin-4-yl)-3,5-dimethyl-1H-pyrazol-4-yl]methanone] had a negative-log IC50 (pIC50) of 6.40.
